Assays:
Format in all cases: in vivo
[1] = test system: Nilaparvata lugens; assay: Test Example 5: drench at foot of rice seedling, release of Nilaparvata lugens larvae; conditions: soil, 144 h; 500 ppm active ingredient; rice seedling drenched at its foot with 5 ml, kept 7 days; twenty third-fourth instar larvae of Nilaparvata lugens; examined after 6 days
Description: On the other hand, a rice seedling (2 weeks after sowing, the second leaf stage) planted in a plastic cup was drenched at its foot with 5 ml of each of the diluted solutions, and kept in a greenhouse of 25° C. for 7 days. Twenty third-fourth instar larvae of Nilaparvata lugens were released, and further kept in the greenhouse for 6 days, then the number of insect of living Nilaparvata lugens parasitized on the rice was examined, and a control value was calculated according to the following equation: Control value (%)={1−(Cb×Tai)/(Cai×Tb))×100 wherein symbols represent as follows: Cb: the number of insects in a non-treated section before treatment, Cai: the number of insects in a non-treated section in observation, Tb: the number of insects in a treated-section before treatment, Tai: the number of insects in a treated-section in observation; wherein the non-treated section represents a section where the test diluted solution prepared by diluting the formulation without the present compound in Formulation Example 5 with the same amount of water as in the treated-section was used.

[2] = test system: Aphis gossypii; assay: Test Example 3: drench at foot of cucumber seedling, then inoculation with Aphis gossypii; conditions: soil, 144 h, read-out: Control value
[3] = test system: Aphis gossypii; assay: Test Example 2: root immersion of cucumber seedling, then inoculation with Aphis gossypii; conditions: 168 h; 500 ppm active ingredient; cucumber root part immersed in 5 ml; 30 Aphis gossypii inoculated one day after treatment; examined after further seven days
Description: A root part of a cucumber seedling (the first true leaf stage) from which soil had been washed off was immersed in 5 ml of each of the diluted solutions, and one day after treatment, on the cucumber leaf surface was inoculated with 30 Aphis gossypii (whole stage). After further seven days, the number of insect of living Aphis gossypii parasitized on the leaves of the cucumber was examined, and a control value was calculated according to the following equation: Control value (%)={1−(Cb×Tai)/(Cai×Tb))×100 wherein symbols represent as follows: Cb: the number of insects in a non-treated section before treatment, Cai: the number of insects in a non-treated section in observation, Tb: the number of insects in a treated-section before treatment, Tai: the number of insects in a treated-section in observation; wherein the non-treated section represents a section where the test diluted solution prepared by diluting the formulation without the present compound in Formulation Example 5 with the same amount of water as in the treated-section was used.

[4] = test system: Bemisia tabaci; assay: Test Example 6: spray on tomato seedling with Bemisia tabaci instar larvae; conditions: 168 h; 500 ppm active ingredient; 20 ml/cup sprayed on tomato seedling with hatched Bemisia tabaci instar larvae; after 7 days at 25° C.
Description: On the other hand, Bemisia tabaci adult was released on a tomato seedling (the third true leaf stage) planted in a polyethylene cup, and made to lay eggs for about 72 hours. The tomato seedling was kept in a greenhouse for 8 days. When instar larvae hatched from the eggs, the above test spray solution was sprayed in the amount of 20 ml/cup. The cup was kept in a greenhouse at 25° C. After the keeping for 7 days, the number of surviving instar larvae on the tomato leaves was examined, and a control value was calculated according to the following equation: Control value (%)={1−(Cb×Tai)/(Cai×Tb))×100 wherein symbols represent as follows: Cb: the number of insects in a non-treated section before treatment, Cai: the number of insects in a non-treated section in observation, Tb: the number of insects in a treated-section before treatment, Tai: the number of insects in a treated-section in observation; wherein the non-treated section represents a section where the test spray solution prepared by diluting the formulation without the present compound in Formulation Example 5 with the same amount of water as in the treated-section was sprayed.

[5] = test system: Aphis gossypii; assay: Test Example 1: spray on cucumber seedling inoculated with Aphis gossypii; conditions: topical, 144 h; 500 ppm active ingredient (Formulation Example 5 diluted with water); 20 ml sprayed on cucumber seedling with about 30 Aphis gossypii; six days after spraying
Description: On the other hand, on a cucumber seedling (the first true leaf stage) planted in a plastic cup was inoculated with about 30 Aphis gossypii, and leaving it for a day. Twenty ml of each of the above test spray solutions was sprayed on this seedling. Six days after spraying, the number of the surviving Aphis gossypii parasitized on the leaves of the cucumber was examined, and a control value was calculated according to the following equation: Control value (%)={1−(Cb×Tai)/(Cai×Tb))×100 wherein symbols represent as follows: Cb: the number of insects in a non-treated section before treatment, Cai: the number of insects in a non-treated section in observation, Tb: the number of insects in a treated-section before treatment, Tai: the number of insects in a treated-section in observation; wherein the non-treated section represents a section where the test spray solution prepared by diluting the formulation without the present compound in Formulation Example 5 with the same amount of water as in the treated-section was sprayed.

[6] = test system: Nilaparvata lugens; assay: Test Example 4: spray on rice seedling, release of Nilaparvata lugens larvae; conditions: 144 h; 500 ppm active ingredient; rice seedling sprayed with 10 ml; third-fourth instar larvae of Nilaparvata lugens; after 6 days at 25° C.; read-out: Control value
[7] = test system: Adoxophyes orana fasciata; assay: Test Example 8: spray on apple tree, release of Adoxophyes orana fasciata; conditions: in Malus domestica, 168 h; 500 ppm active ingredient; apple tree sprayed with 20 mL/cup; 60 first-instar Adoxophyes orana fasciata; after 7 days; read-out: Death rate
Description: On the other hand, an apple tree was planted in a plastic cup, and grown until the seventh-eighth leaf was spread. The apple tree was sprayed with 20 mL/cup of each of the test spray solution. After the test solution was dried, 60 first-instar Adoxophyes orana fasciata were released, and the cup was covered with a plastic cup upside-down which the bottom was cut off and a filter paper was put thereon. After 7 days, the number of living insects was counted, and a death rate was calculated according to the following equation: Death rate (%)=(Number of dead insects/Number of tested insects)×100

[8] = 500 ppm active ingredient, cucumber seedling drenched at its foot with 5 ml, kept 7 days at 25° C., 30 Aphis gossypii inoculated, examined after 6 days

Measured: pest or weed control at 500 ppm

CCSc1ccccc1-c1nc2cc(C(F)(F)C(F)(F)F)cnc2n1C [Present Compound 55, 2-(2-ethylsulfanylphenyl)-3-methyl-6-pentafluoroethyl-3H-imidazo[4,5-b]pyridine]
≥ 90%: [1] | [2]; [8] | [3] | [4] | [5] | [6]

CC[S+]([O-])c1c(Cl)cccc1-c1nc2cc(C(F)(F)F)cnc2n1C (stereo not drawn) [Present Compound 89, 2-(3-chloro-2-ethylsulfinylphenyl)-3-methyl-6-trifluoromethyl-3H-imidazo[4,5-b]pyridine]
≥ 90%: [1] | [2]; [8] | [3]

CCS(=O)(=O)c1ccccc1-c1nc2cc(C(F)(F)C(F)(F)C(F)(F)F)cnc2n1C [Present Compound 130, 2-(2-ethylsulfonylphenyl)-6-heptafluoropropyl-3-methyl-3H-imidazo[4,5-b]pyridine]
≥ 90%: [1] | [2]; Aphis gossypii

CCS(=O)(=O)c1cc(C(F)(F)F)ccc1-c1nc2cc(SC(F)(F)F)cnc2n1C [compound 306, 2-(2-ethylsulfonyl-4-trifluoromethylphenyl)-3-methyl-6-trifluoromethylsulfanyl-3H-imidazo[4,5-b]pyridine]
≥ 90%: [1] | [2]; [8] | [3] | [6]

CCS(=O)(=O)c1cc(-c2ncccn2)ccc1-c1nc2cc(C(F)(F)F)cnc2n1C [compound 333, 2-[2-ethylsulfonyl-4-(pyrimidine-2-yl)-phenyl)-3-methyl-6-trifluoromethyl-3H-imidazo[4,5-b]pyridine]
≥ 90%: [2]; [8] | [3] | [4] | [5]

CCS(=O)(=O)c1cc(C(F)(F)F)ccc1-c1nc2cc(C(F)(F)F)cnc2[nH]1 [compound 345, 2-(2-ethylsulfonyl-4-trifluoromethyl-phenyl)-6-trifluoromethyl-3H-imidazo[4,5-b]pyridine]
≥ 90%: [1] | [2]; [8] | [7] | [4] | [5]
